This is an account of results in paper PMC2248166, “Quantitative peptide binding motifs for 19 human and mouse MHC class I molecules derived using positional scanning combinatorial peptide libraries” (Immunome Research, 2008).

Targets include HLA A*3201 (Homo sapiens, UniProt P04439, A270S/D101S/D185E/E176V/E277Q/F133L/G103R/G107R/G231S/H175R/I121M/I218V/I322F/K168Q/L105A/L300P/L318F/M331R/P208A/P217A/Q94H/R106L/R138Q/S129P/T104I/T323A/T345S/V100E/V321M/V358M); HLA B*1503 (Homo sapiens, UniProt P01889, A329T/A93T/A95T/C349S/D201E/D98Y/E187L/E204Q/K202T/N87E/Q94N/R155S/R180L/S121R/S35A/V306I/V36M/Y140S/Y91S); HLA B*1501 (Homo sapiens, UniProt P01889, A329T/A93T/A95T/C349S/D201E/D98Y/E187L/E204Q/E69M/E70A/K202T/N87E/Q94N/R155S/R180W/S121R/S35A/S48A/V306I/V36M/Y140S/Y91S).

Test in all cases: biochemical
Holding throughout (assay type): binding

Where a SMILES comes first, the peptide text is derived from it.

For `CC[C@H](C)[C@H](NC(=O)[C@@H](N)CCCCN)C(=O)NCC(=O)N[C@@H](CCSC)C(=O)N[C@@H](Cc1ccccc1)C(=O)N[C@@H](CC(N)=O)C(=O)N[C@@H](CC(C)C)C(=O)N[C@H](C(=O)N[C@@H](Cc1ccccc1)C(=O)O)[C@@H](C)O` [3102.0341] (H-KIGMFNLTF-OH), the IC50 on HLA A*3201 stood at 0.27 nM; on HLA B*1503, 13 nM; against HLA B*1501, 0.21 nM.

In the case of `CC[C@H](C)[C@H](NC(=O)[C@@H]1CCCN1C(=O)[C@@H](NC(=O)[C@H](CO)NC(=O)[C@H](CC(N)=O)NC(=O)[C@H](Cc1ccc(O)cc1)NC(=O)[C@H](CO)NC(=O)[C@H](CCC(N)=O)NC(=O)[C@@H](N)CCSC)C(C)C)C(=O)O` [3102.0353] (H-MQSYNSVPI-OH), the figures for the IC50 at HLA A*3201, on HLA B*1503 and on HLA B*1501 were 2.5 nM, 0.73 nM and 1.6 nM, respectively.

Regarding `CC[C@H](C)[C@H](NC(=O)[C@@H](NC(=O)[C@@H](N)CCCCN)[C@@H](C)O)C(=O)N[C@@H](CC(N)=O)C(=O)N[C@@H](C)C(=O)N[C@@H](CC(C)C)C(=O)N[C@H](C(=O)N[C@@H](Cc1ccc(O)cc1)C(=O)N[C@@H](Cc1ccccc1)C(=O)O)C(C)C` [3102.0359] (H-KTINALVYF-OH), the figures for the IC50 against HLA A*3201, on HLA B*1503 and against HLA B*1501 were 8.7 nM, 23 nM and 0.37 nM, respectively.

Consider `CC[C@H](C)[C@H](NC(=O)[C@@H](N)CCC(N)=O)C(=O)N[C@H](C(=O)N[C@@H](C)C(=O)N[C@@H](Cc1ccc(O)cc1)C(=O)N[C@@H](Cc1ccccc1)C(=O)N[C@@H](CO)C(=O)N[C@@H](CCC(=O)O)C(=O)N[C@@H](Cc1ccccc1)C(=O)O)C(C)C` [3102.0816] (H-QIVAYFSEF-OH), for which the IC50 on HLA A*3201 came to 70 nM; on HLA B*1503, 7.9 nM; against HLA B*1501, 1.4 nM.

With `CC(C)C[C@H](NC(=O)[C@@H](N)C(C)C)C(=O)N[C@@H](Cc1ccccc1)C(=O)N[C@@H](CCC(=O)O)C(=O)N[C@H](C(=O)N[C@@H](Cc1ccccc1)C(=O)N[C@H](C(=O)N[C@H](C(=O)N[C@@H](Cc1ccccc1)C(=O)O)C(C)C)C(C)C)C(C)C` [3102.0818] (H-VLFEVFVVF-OH), the IC50 was 7.8 nM against HLA A*3201, 4.9 nM against HLA B*1503 and 2.9 nM against HLA B*1501.

In the case of `CC[C@H](C)[C@H](NC(=O)[C@H](CO)NC(=O)[C@@H](N)CCSC)C(=O)N[C@@H](CCSC)C(=O)N1CCC[C@H]1C(=O)N[C@H](C(=O)N[C@@H](CC(C)C)C(=O)N[C@@H](C)C(=O)N[C@@H](Cc1ccc(O)cc1)C(=O)O)C(C)C` [3102.0858] (H-MSIMPVLAY-OH), the IC50 was found to be 100 nM against HLA A*3201 and 1.4 nM against HLA B*1501.

With `CC(C)C[C@H](NC(=O)[C@@H](N)CC(C)C)C(=O)N[C@@H](Cc1ccc(O)cc1)C(=O)N[C@H](C(=O)N[C@@H](C)C(=O)N[C@@H](CC(N)=O)C(=O)N[C@@H](Cc1ccccc1)C(=O)N[C@H](C(=O)N[C@@H](Cc1ccccc1)C(=O)O)[C@@H](C)O)[C@@H](C)O` [3102.0873] (H-LLYTANFTF-OH), the IC50 on HLA A*3201 is 6.7 nM; against HLA B*1501, 2.4 nM.

Consider `CC[C@H](C)[C@H](NC(=O)[C@@H]1CCCN1C(=O)[C@H](CCC(=O)O)NC(=O)[C@H](CCC(=O)O)NC(=O)[C@H](CC(C)C)NC(=O)[C@H](Cc1ccc(O)cc1)NC(=O)[C@H](Cc1ccccc1)NC(=O)[C@H](CC(C)C)NC(=O)[C@@H](N)CCSC)C(=O)O` [3102.0881] (H-MLFYLEEPI-OH), for which the IC50 against HLA A*3201 amounted to 2.5 nM; against HLA B*1501 it was 45 nM.

Turning to `CC[C@H](C)[C@H](NC(=O)[C@@H](NC(=O)[C@@H](N)CO)[C@@H](C)CC)C(=O)N[C@@H](CO)C(=O)N[C@@H](CC(C)C)C(=O)N[C@@H](Cc1ccccc1)C(=O)N[C@@H](Cc1ccc(O)cc1)C(=O)N[C@H](C(=O)N[C@@H](Cc1ccccc1)C(=O)O)[C@@H](C)O` [3102.0919] (H-SIISLFYTF-OH), the IC50 against HLA A*3201 was determined as 5.7 nM; against HLA B*1501, 1.4 nM.

As to `CC(C)C[C@H](N)C(=O)N[C@H](C(=O)N[C@@H](Cc1ccccc1)C(=O)N[C@@H](CC(=O)O)C(=O)N[C@@H](Cc1ccc(O)cc1)C(=O)N[C@H](C(=O)N[C@H](C(=O)N[C@H](C(=O)N[C@@H](Cc1ccccc1)C(=O)O)[C@@H](C)O)C(C)C)C(C)C)[C@@H](C)O` [3102.0931] (H-LTFDYVVTF-OH), the IC50 was determined as 17 nM against HLA A*3201 and 2.5 nM at HLA B*1501.

In the case of `CC(C)C[C@H](NC(=O)[C@H](C)N)C(=O)N[C@@H](CC(C)C)C(=O)N[C@@H](CCC(=O)O)C(=O)N[C@@H](CC(C)C)C(=O)N[C@@H](Cc1ccccc1)C(=O)N[C@@H](CC(N)=O)C(=O)N[C@@H](C)C(=O)N[C@@H](Cc1ccccc1)C(=O)O` [3102.0961] (H-ALLELFNAF-OH), the figures for the IC50 on HLA A*3201, at HLA B*1503 and against HLA B*1501 were 166 nM, 0.24 nM and 2.5 nM, respectively.

Turning to `CC[C@H](C)[C@H](NC(=O)[C@@H](NC(=O)[C@@H](N)CC(C)C)[C@@H](C)CC)C(=O)N[C@H](C(=O)N[C@@H](CCCCN)C(=O)N[C@H](C(=O)N[C@@H](Cc1ccccc1)C(=O)N[C@@H](CO)C(=O)N[C@@H](Cc1ccccc1)C(=O)O)C(C)C)[C@@H](C)O` [3102.1011] (H-LIITKVFSF-OH), the IC50 at HLA A*3201 is 84 nM; against HLA B*1501, 7.7 nM.

On to `CC[C@H](C)[C@H](NC(=O)[C@@H](N)CC(N)=O)C(=O)N[C@@H](Cc1ccccc1)C(=O)N1CCC[C@H]1C(=O)N[C@@H](Cc1ccccc1)C(=O)N[C@@H](Cc1ccccc1)C(=O)N[C@H](C(=O)N[C@@H](C)C(=O)N[C@@H](Cc1ccccc1)C(=O)O)C(C)C` [3102.1019] (H-NIFPFFVAF-OH), for which the IC50 on HLA A*3201 was 12 nM; at HLA B*1501, 2.2 nM.

Take `CC[C@H](C)[C@H](NC(=O)[C@@H](NC(=O)[C@@H](N)CCCCN)[C@@H](C)O)C(=O)N[C@@H](C)C(=O)N[C@@H](CCCNC(=N)N)C(=O)N[C@@H](Cc1ccccc1)C(=O)N[C@H](C(=O)N[C@@H](Cc1ccc(O)cc1)C(=O)N[C@@H](Cc1ccccc1)C(=O)O)[C@@H](C)O` [3102.1031] (H-KTIARFTYF-OH): the IC50 was 95 nM against HLA A*3201 and 0.2 nM against HLA B*1501.

In the case of `CC(C)C[C@H](NC(=O)[C@H](Cc1ccccc1)NC(=O)[C@H](Cc1c[nH]c2ccccc12)NC(=O)[C@H](CC(C)C)NC(=O)[C@@H](N)CC(C)C)C(=O)N[C@H](C(=O)NCC(=O)N[C@H](C(=O)N[C@@H](Cc1ccccc1)C(=O)O)[C@@H](C)O)[C@@H](C)O` [3102.1045] (H-LLWFLTGTF-OH), the results for the IC50 at HLA A*3201 and against HLA B*1501 were 93 nM and 0.78 nM, respectively.

For `CC[C@H](C)[C@H](NC(=O)[C@H](CC(C)C)NC(=O)[C@H](Cc1ccccc1)NC(=O)[C@@H](NC(=O)[C@H](CO)NC(=O)[C@H](Cc1ccc(O)cc1)NC(=O)[C@H](CC(C)C)NC(=O)[C@@H](N)CCCNC(=N)N)[C@@H](C)CC)C(=O)N[C@@H](Cc1ccccc1)C(=O)O` [3102.1049] (H-RLYSIFLIF-OH), the IC50 is 6.9 nM against HLA A*3201, 0.16 nM at HLA B*1503 and 3.4 nM against HLA B*1501.

With `CC(C)C[C@H](N)C(=O)N[C@@H](CO)C(=O)N[C@@H](Cc1ccc(O)cc1)C(=O)N[C@@H](Cc1ccc(O)cc1)C(=O)N[C@H](C(=O)N[C@H](C(=O)N[C@@H](Cc1ccc(O)cc1)C(=O)N[C@H](C(=O)N[C@@H](Cc1ccccc1)C(=O)O)C(C)C)C(C)C)C(C)C` [3102.1098] (H-LSYYVVYVF-OH), the concentration for half-maximal inhibition (IC50) against HLA A*3201 came to 280 nM; against HLA B*1503, 19 nM; at HLA B*1501, 6.4 nM.

As for `CC(C)C[C@H](NC(=O)[C@@H](N)CCCCN)C(=O)N[C@@H](CC(N)=O)C(=O)N[C@@H](CC(N)=O)C(=O)N[C@H](C(=O)N[C@@H](Cc1ccccc1)C(=O)N[C@@H](Cc1ccc(O)cc1)C(=O)N[C@H](C(=O)N[C@@H](Cc1ccccc1)C(=O)O)C(C)C)C(C)C` [3102.1169] (H-KLNNVFYVF-OH), the IC50 against HLA A*3201 came out at 0.52 nM; on HLA B*1501 it was 1.2 nM.

With `CC[C@H](C)[C@H](NC(=O)[C@H](CO)NC(=O)[C@@H](N)CC(C)C)C(=O)N[C@@H](Cc1ccccc1)C(=O)N[C@@H](Cc1ccccc1)C(=O)N[C@@H](Cc1ccc(O)cc1)C(=O)N[C@@H](CO)C(=O)N[C@@H](CO)C(=O)N[C@@H](Cc1ccccc1)C(=O)O` [3102.1177] (H-LSIFFYSSF-OH), the IC50 at HLA A*3201 turned out to be 129 nM; on HLA B*1503, 0.22 nM; against HLA B*1501, 17 nM.

In the case of `CC[C@H](C)[C@H](NC(=O)[C@@H](N)CCCCN)C(=O)N[C@@H](Cc1ccc(O)cc1)C(=O)N[C@@H](CC(N)=O)C(=O)N[C@H](C(=O)N[C@H](C(=O)N[C@@H](CC(N)=O)C(=O)N1CCC[C@H]1C(=O)N[C@@H](Cc1ccccc1)C(=O)O)[C@@H](C)O)C(C)C` [3102.1223] (H-KIYNVTNPF-OH), the half-maximal inhibitory concentration (IC50) amounted to 4.3 nM against HLA A*3201, 7.5 nM against HLA B*1503 and 2.7 nM against HLA B*1501.

For the molecule `CC[C@H](C)[C@H](NC(=O)[C@H](CO)NC(=O)[C@H](CC(N)=O)NC(=O)[C@H](CC(C)C)NC(=O)[C@@H](N)CO)C(=O)N[C@@H](Cc1ccccc1)C(=O)N[C@@H](CC(N)=O)C(=O)N[C@H](C(=O)N[C@@H](Cc1ccccc1)C(=O)O)[C@@H](C)O` [3102.1238] (H-SLNSIFNTF-OH), the IC50 on HLA A*3201 was found to be 14 nM; against HLA B*1501, 2.2 nM.

With `CC(C)C[C@H](NC(=O)[C@@H](NC(=O)[C@@H](NC(=O)[C@H](CO)NC(=O)[C@H](CC(N)=O)NC(=O)[C@H](CCC(N)=O)NC(=O)[C@@H](N)CC(C)C)C(C)C)C(C)C)C(=O)N[C@@H](CCC(N)=O)C(=O)N[C@@H](Cc1ccccc1)C(=O)O` [3102.1263] (H-LQNSVVLQF-OH), the IC50 against HLA A*3201 turned out to be 7.3 nM; against HLA B*1503 it was 6.2 nM; against HLA B*1501 it was 1.5 nM.

For orientation: IC50 means the concentration that inhibits the measured activity by half.
